Test results: patent US20150087673A1, “METHODS FOR USING AND BIOMARKERS FOR AMPK-ACTIVATING COMPOUNDS” (RIGEL PHARMACEUTICALS, INC., priority 2013, published 2015)

system: AMPK; assay: AMPK activation assay (enzyme-linked immunosorbent assay); format: cell-based
Outline: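 Test compounds were added, and kinase activation was then detected by immunoassay following established kit procedures.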

SMILES	EC50 [µM]
N#Cc1ccc(OC2CCN(C(=O)c3ccc(C(=O)NC4CCN(c5ccc(F)cc5)CC4)cn3)CC2)cc1 [Compound 422, 6-(4-(4-cyanophenoxy)piperidine-1-carbonyl)-N-(1-(4-fluorophenyl)piperidin-4-yl)nicotinamide]	1 to 5
COc1ccc(N2CCC(NC(=O)c3ccc(C(=O)N4CCC(Oc5ccc(C#N)cc5)CC4)nc3)CC2)cc1 [Compound 423, 6-(4-(4-cyanophenoxy)piperidine-1-carbonyl)-N-(1-(4-methoxyphenyl)piperidin-4-yl)nicotinamide]	< 0.5
COc1ccc(C(=O)C2CCN(C(=O)c3ccc(C(=O)NC4CCN(Cc5cccc(OC(F)(F)F)c5)CC4)cn3)CC2)cc1 [Compound 424, 6-(4-(4-methoxybenzoyl)piperidine-1-carbonyl)-N-(1-(3-(trifluoromethoxy)benzyl)piperidin-4-yl)nicotinamide]	< 0.5
COc1ccc(C(=O)C2CCN(C(=O)c3ccc(C(=O)NC4CCN(Cc5cccc(OC)c5)CC4)cn3)CC2)cc1 [Compound 425, 6-(4-(4-methoxybenzoyl)piperidine-1-carbonyl)-N-(1-(3-methoxybenzyl)piperidin-4-yl) nicotinamide]	< 0.5
COc1ccc(C(=O)C2CCN(C(=O)c3ccc(C(=O)N[C@@H]4CCN(Cc5cc(C)on5)C[C@@H]4F)cn3)CC2)cc1 [Compound 426, N-((3S,4R)-3-fluoro-1-((5-methylisoxazol-3-yl)methyl)piperidin-4-yl)-6-(4-(4-methoxybenzoyl)piperidine-1-carbonyl)nicotinamide]	< 0.5
COc1ccc(C(=O)C2CCN(C(=O)c3ccc(C(=O)N[C@@H]4CCN(Cc5csc(C)n5)C[C@@H]4F)cn3)CC2)cc1 [Compound 427, N-((3S,4R)-3-fluoro-1-((2-methylthiazol-4-yl)methyl)piperidin-4-yl)-6-(4-(4-methoxybenzoyl)piperidine-1-carbonyl)nicotinamide]	1 to 5
CC(=O)Nc1ccc(OC2CCN(C(=O)c3ccc(C(=O)NC4CCN(Cc5cccc(OC(F)(F)F)c5)CC4)cn3)CC2)cc1 [Compound 428, 6-(4-(4-acetamidophenoxy)piperidine-1-carbonyl)-N-(1-(3-(trifluoromethoxy)benzyl)piperidin-4-yl)nicotinamide]	0.5 to 1
CC(=O)Nc1cccc(OC2CCN(C(=O)c3ccc(C(=O)NC4CCN(Cc5cccc(OC(F)(F)F)c5)CC4)cn3)CC2)c1 [Compound 429, 6-(4-(3-acetamidophenoxy)piperidine-1-carbonyl)-N-(1-(3-(trifluoromethoxy)benzyl)piperidin-4-yl)nicotinamide]	0.5 to 1
COc1ccc(C(=O)C2CCN(C(=O)c3ccc(C(=O)NC4CCN(Cc5ccc(OC(F)(F)F)cc5)CC4)cn3)CC2)cc1 [Compound 430, 6-(4-(4-methoxybenzoyl)piperidine-1-carbonyl)-N-(1-(4-(trifluoromethoxy)benzyl)piperidin-4-yl)nicotinamide]	< 0.5
N#Cc1ccc(CN2CCC(NC(=O)c3ccc(C(=O)N4CCC(Oc5cccc(NC(=O)C6CC6)c5)CC4)nc3)CC2)cc1 [Compound 431, N-(1-(4-cyanobenzyl)piperidin-4-yl)-6-(4-(3-(cyclopropanecarboxamido)phenoxy)piperidine-1-carbonyl)nicotinamide]	0.5 to 1
O=C(NC1CCN(Cc2ccc(F)cc2)CC1)c1ccc(C(=O)N2CCC(Oc3cccc(NC(=O)C4CC4)c3)CC2)nc1 [Compound 432, 6-(4-(3-(cyclopropanecarboxamido)phenoxy)piperidine-1-carbonyl)-N-(1-(4-fluorobenzyl)piperidin-4-yl)nicotinamide]	0.5 to 1
O=C(Nc1ccc(Oc2ccc(F)cc2)nc1)c1ccc(C(=O)N2CCC(Oc3cccc(NC(=O)C4CC4)c3)CC2)nc1 [Compound 433, 6-(4-(3-(cyclopropanecarboxamido)phenoxy)piperidine-1-carbonyl)-N-(6-(4-fluorophenoxy)pyridin-3-yl)nicotinamide]	< 0.5
N#Cc1ccc(O[C@H]2CC[C@@H](NC(=O)c3ccc(C(=O)N4CCC(Oc5cccc(NC(=O)C6CC6)c5)CC4)nc3)CC2)cc1 [Compound 434, N-((cis)-4-(4-cyanophenoxy)cyclohexyl)-6-(4-(3-(cyclopropanecarboxamido)phenoxy)piperidine-1-carbonyl)nicotinamide]	< 0.5
COc1ccc(CN2CCC(NC(=O)c3ccc(C(=O)N4CCC(Oc5cccc(NC(=O)C6CC6)c5)CC4)nc3)CC2)cc1 [Compound 435, 6-(4-(3-(cyclopropanecarboxamido)phenoxy)piperidine-1-carbonyl)-N-(1-(4-methoxybenzyl)piperidin-4-yl)nicotinamide]	< 0.5
N#Cc1ccc(CN2CCC(NC(=O)c3ccc(C(=O)N4CCC(Oc5ccc(SC(F)(F)F)cc5)CC4)nn3)CC2)cc1 [Compound 436, N-(1-(4-cyanobenzyl)piperidin-4-yl)-6-(4-(4-(trifluoromethylthio)phenoxy)piperidine-1-carbonyl)pyridazine-3-carboxamide]	< 0.5
CC(=O)c1ccc(OC2CCN(C(=O)c3ccc(C(=O)NC4CCN(Cc5ccc(C#N)cc5)CC4)nn3)CC2)cc1 [Compound 437, 6-(4-(4-acetylphenoxy)piperidine-1-carbonyl)-N-(1-(4-cyanobenzyl)piperidin-4-yl)pyridazine-3-carboxamide]	< 0.5

SMILES	EC50 [µM]
O=C(NC1CCN(Cc2ccc(OC(F)(F)F)cc2)CC1)c1ccc(C(=O)N2CCC(Oc3cccc(NC(=O)C4CC4)c3)CC2)nc1 [Compound 438, 6-(4-(3-(cyclopropanecarboxamido)phenoxy)piperidine-1-carbonyl)-N-(1-(4-(trifluoromethoxy)benzyl)piperidin-4-yl)nicotinamide]	< 0.5
COc1ccc(CN2CCC(NC(=O)c3ccc(C(=O)N4CCC(C(=O)c5ccc(N6CCCC6)cc5)CC4)nc3)CC2)cc1 [Compound 439, N-(1-(4-methoxybenzyl)piperidin-4-yl)-6-(4-(4-(pyrrolidin-1-yl)benzoyl)piperidine-1-carbonyl)nicotinamide]	< 0.5
O=C(NC1CCN(Cc2ccc(OC(F)(F)F)cc2)CC1)c1ccc(C(=O)N2CCC(C(=O)c3ccc(N4CCCC4)cc3)CC2)nc1 [Compound 440, 6-(4-(4-(pyrrolidin-1-yl)benzoyl)piperidine-1-carbonyl)-N-(1-(4-(trifluoromethoxy)benzyl)piperidin-4-yl)nicotinamide]	< 0.5
O=C(NC1CCN(Cc2cccc(OC(F)(F)F)c2)CC1)c1ccc(C(=O)N2CCC(C(=O)c3ccc(N4CCCC4)cc3)CC2)nc1 [Compound 441, 6-(4-(4-(pyrrolidin-1-yl)benzoyl)piperidine-1-carbonyl)-N-(1-(3-(trifluoromethoxy)benzyl)piperidin-4-yl)nicotinamide]	< 0.5
N#Cc1ccc(O[C@H]2CC[C@@H](NC(=O)c3ccc(C(=O)N4CCC(C(=O)c5ccc(N6CCCC6)cc5)CC4)nc3)CC2)cc1 [Compound 442, N-((cis)-4-(4-cyanophenoxy)cyclohexyl)-6-(4-(4-(pyrrolidin-1-yl)benzoyl)piperidine-1-carbonyl)nicotinamide]	< 0.5
COc1ccc(CN2CCC(NC(=O)c3ccc(C(=O)N4CCC(C(=O)c5ccc(N6CCCC6)cc5)CC4)nc3)CC2)cc1F [Compound 443, N-(1-(3-fluoro-4-methoxybenzyl)piperidin-4-yl)-6-(4-(4-(pyrrolidin-1-yl)benzoyl)piperidine-1-carbonyl)nicotinamide]	< 0.5
O=C(NC1CCN(Cc2ccc(N3CCCC3)cc2)CC1)c1ccc(C(=O)N2CCC(C(=O)c3ccc(N4CCCC4)cc3)CC2)nc1 [Compound 444, 6-(4-(4-(pyrrolidin-1-yl)benzoyl)piperidine-1-carbonyl)-N-(1-(4-(pyrrolidin-1-yl)benzyl)piperidin-4-yl)nicotinamide]	< 0.5
COc1ccc(C(=O)C2CCN(C(=O)c3ccc(C(=O)NC4CCNCC4)cn3)CC2)cc1 [Compound 445, 6-(4-(4-methoxybenzoyl)piperidine-1-carbonyl)-N-(piperidin-4-yl)nicotinamide]	> 10
CC(C)Oc1ccc(CN2CCC(NC(=O)c3ccc(C(=O)N4CCC(C(=O)c5ccc(N6CCCC6)cc5)CC4)nc3)CC2)cc1 [Compound 446, N-(1-(4-isopropoxybenzyl)piperidin-4-yl)-6-(4-(4-(pyrrolidin-1-yl)benzoyl)piperidine-1-carbonyl)nicotinamide]	< 0.5
N#Cc1ccc(CN2CCC(NC(=O)c3ccc(C(=O)N4CCC(C(=O)c5ccc(N6CCCC6)cc5)CC4)nc3)CC2)cc1F [Compound 447, N-(1-(4-cyano-3-fluorobenzyl)piperidin-4-yl)-6-(4-(4-(pyrrolidin-1-yl)benzoyl)piperidine-1-carbonyl)nicotinamide]	< 0.5
N#Cc1ccc(CN2CCC(NC(=O)c3ccc(C(=O)N4CCC(Oc5ccc(NS(=O)(=O)C6CC6)cc5)CC4)nc3)CC2)cc1 [Compound 448, N-(1-(4-cyanobenzyl)piperidin-4-yl)-6-(4-(4-(cyclopropanesulfonamido)phenoxy)piperidine-1-carbonyl)nicotinamide]	1 to 5
O=C(Nc1ccc(Oc2ccc(F)cc2)nc1)c1ccc(C(=O)N2CCC(Oc3ccc(NS(=O)(=O)C4CC4)cc3)CC2)nc1 [Compound 449, 6-(4-(4-(cyclopropanesulfonamido)phenoxy)piperidine-1-carbonyl)-N-(6-(4-fluorophenoxy)pyridin-3-yl)nicotinamide]	1 to 5
N#Cc1ccc(CN2CCC(NC(=O)c3ccc(C(=O)N4CCC(Oc5ccc(S(=O)(=O)C(F)(F)F)cc5)CC4)nc3)CC2)cc1 [Compound 450, N-(1-(4-cyanobenzyl)piperidin-4-yl)-6-(4-(4-(trifluoromethylsulfonyl)phenoxy)piperidine-1-carbonyl)nicotinamide]	< 0.5
COc1ccc(C(=O)C2CCN(C(=O)c3ccc(C(=O)N[C@@H]4CCN(Cc5ccc(C#N)cc5)C[C@H]4F)cn3)CC2)cc1 [Compound 452, N-((3R,4R)-1-(4-cyanobenzyl)-3-fluoropiperidin-4-yl)-6-(4-(4-methoxybenzoyl)piperidine-1-carbonyl)nicotinamide]	< 0.5
COc1ccc(C(=O)C2CCN(C(=O)c3ccc(C(=O)N[C@H]4CCN(Cc5ccc(C#N)cc5)C[C@@H]4F)cn3)CC2)cc1 [Compound 453, N-((3S,4S)-1-(4-cyanobenzyl)-3-fluoropiperidin-4-yl)-6-(4-(4-methoxybenzoyl)piperidine-1-carbonyl)nicotinamide]	< 0.5
